ChEMBL document CHEMBL1201862, “PubChem BioAssay data set” (2004)
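Following 48 hours of exposure in 96-well plates, responses at five concentrations were used to interpolate endpoints linearly. Abbreviation: GI50, concentration required for 50% inhibition of growth.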 Active and inactive are the calls of the source. No stated cut-off is given here; in the data, active = GI50 up to about 1.1 µM and inactive = higher.

Tests used:
Assay in all cases: growth of human tumour cells (NCI), 48 h
COLO 205 = tested on: COLO 205
EKVX = tested on: EKVX
HOP-62 = tested on: HOP-62
HOP-92 = tested on: HOP-92
KM12 = tested on: KM12
MOLT-4 = tested on: MOLT-4
OVCAR-3 = tested on: OVCAR-3
OVCAR-8 = tested on: OVCAR-8
SF-268 = tested on: SF-268
SK-MEL-28 = tested on: SK-MEL-28
SNB-75 = tested on: SNB-75
HCT-15 = tested on: HCT-15
M14 = tested on: M14
SN12C = tested on: SN12C

COc1cccc2c1OC1Sc3ccccc3-c3nn(-c4ccccc4)c-2c31 (centres undefined)
GI50 (COLO 205): > 100 µM (inactive)
GI50 (EKVX): > 100 µM (inactive)
GI50 (HOP-62): > 100 µM (inactive)
GI50 (HOP-92): > 100 µM (inactive)
GI50 (KM12): > 100 µM (inactive)
GI50 (MOLT-4): > 100 µM (inactive)
GI50 (OVCAR-3): > 100 µM (inactive)
GI50 (OVCAR-8): > 100 µM (inactive)
GI50 (SF-268): > 100 µM (inactive)
GI50 (SK-MEL-28): > 100 µM (inactive)
GI50 (SNB-75): > 100 µM (inactive)

O=C(CSc1nnc(Cc2ccccc2)o1)Nc1cccc(Cl)c1
GI50 (COLO 205): > 100 µM (inactive)
GI50 (EKVX): > 100 µM (inactive)
GI50 (HCT-15): 98.4 µM
GI50 (HOP-62): > 100 µM (inactive)
GI50 (KM12): > 100 µM (inactive)
GI50 (M14): 69 µM (inactive)
GI50 (MOLT-4): 79.3 µM (inactive)
GI50 (OVCAR-3): 31.9 µM (inactive)
GI50 (OVCAR-8): > 100 µM (inactive)
GI50 (SF-268): > 100 µM (inactive)
GI50 (SK-MEL-28): > 100 µM (inactive)
GI50 (SN12C): 97.1 µM (inactive)
GI50 (SNB-75): 25.9 µM (inactive)

CC1C[C@@H]2C(=O)NC(=O)[C@@H]2c2c1c1ccccc1n2C (some centres undefined)
GI50 (COLO 205): > 100 µM (inactive)
GI50 (EKVX): > 100 µM (inactive)
GI50 (HCT-15): > 100 µM
GI50 (HOP-62): > 100 µM (inactive)
GI50 (HOP-92): > 100 µM (inactive)
GI50 (KM12): > 100 µM (inactive)
GI50 (M14): > 100 µM (inactive)
GI50 (MOLT-4): > 100 µM (inactive)
GI50 (OVCAR-3): > 100 µM (inactive)
GI50 (OVCAR-8): > 100 µM (inactive)
GI50 (SF-268): > 100 µM (inactive)
GI50 (SK-MEL-28): > 100 µM (inactive)
GI50 (SN12C): > 100 µM (inactive)
GI50 (SNB-75): > 100 µM (inactive)

COC1OC(CBr)C(OC(=O)c2ccccc2)C(O)C1Br (centres undefined)
GI50 (COLO 205): > 100 µM (inactive)
GI50 (HCT-15): > 100 µM
GI50 (HOP-62): > 100 µM (inactive)
GI50 (HOP-92): > 100 µM (inactive)
GI50 (KM12): > 100 µM (inactive)
GI50 (M14): > 100 µM (inactive)
GI50 (MOLT-4): > 100 µM (inactive)
GI50 (OVCAR-3): > 100 µM (inactive)
GI50 (OVCAR-8): > 100 µM (inactive)
GI50 (SF-268): > 100 µM (inactive)
GI50 (SK-MEL-28): > 100 µM (inactive)
GI50 (SN12C): > 100 µM (inactive)

CN(C(=N)c1ccccc1)c1ccccc1
GI50 (COLO 205): > 100 µM (inactive)
GI50 (EKVX): > 100 µM (inactive)
GI50 (HCT-15): > 100 µM
GI50 (HOP-92): 51.5 µM (inactive)
GI50 (KM12): > 100 µM (inactive)
GI50 (M14): > 100 µM (inactive)
GI50 (MOLT-4): > 100 µM (inactive)
GI50 (OVCAR-3): > 100 µM (inactive)
GI50 (OVCAR-8): > 100 µM (inactive)
GI50 (SK-MEL-28): > 100 µM (inactive)
GI50 (SN12C): > 100 µM (inactive)
GI50 (SNB-75): 47.6 µM (inactive)

O=C(CSc1nnc(-c2ccc(/N=C\c3ccc(Cl)cc3)cc2)o1)Nc1ccccc1Cl
GI50 (COLO 205): > 100 µM (inactive)
GI50 (EKVX): > 100 µM (inactive)
GI50 (HCT-15): > 100 µM
GI50 (HOP-62): > 100 µM (inactive)
GI50 (KM12): > 100 µM (inactive)
GI50 (M14): > 100 µM (inactive)
GI50 (MOLT-4): > 100 µM (inactive)
GI50 (OVCAR-8): > 100 µM (inactive)
GI50 (SF-268): > 100 µM (inactive)
GI50 (SK-MEL-28): > 100 µM (inactive)
GI50 (SN12C): > 10 µM (inactive)
GI50 (SNB-75): > 100 µM (inactive)

COc1nc(=O)n(COC(CO)CN2C(=O)c3ccccc3C2=O)cc1Cc1cccc(OCc2ccccc2)c1 (centres undefined)
GI50 (COLO 205): 19.8 µM (inactive)
GI50 (EKVX): 33.8 µM (inactive)
GI50 (HCT-15): 28.2 µM
GI50 (HOP-92): 21 µM (inactive)
GI50 (KM12): 28.2 µM (inactive)
GI50 (M14): 20.4 µM (inactive)
GI50 (MOLT-4): 21.2 µM (inactive)
GI50 (OVCAR-3): 21.9 µM (inactive)
GI50 (OVCAR-8): 34.5 µM (inactive)
GI50 (SK-MEL-28): 17.2 µM (inactive)
GI50 (SN12C): 22 µM (inactive)
GI50 (SNB-75): 15.5 µM (inactive)

O=c1nc(NC(c2ccccc2)(c2ccccc2)c2ccccc2)ccn1CCO
GI50 (COLO 205): > 100 µM (inactive)
GI50 (EKVX): 81.8 µM (inactive)
GI50 (HCT-15): 63.5 µM
GI50 (HOP-62): > 100 µM (inactive)
GI50 (HOP-92): 41.4 µM (inactive)
GI50 (KM12): 60.3 µM (inactive)
GI50 (MOLT-4): 29.9 µM (inactive)
GI50 (OVCAR-3): 40.2 µM (inactive)
GI50 (OVCAR-8): > 100 µM (inactive)
GI50 (SF-268): 66.4 µM (inactive)
GI50 (SK-MEL-28): > 100 µM (inactive)
GI50 (SN12C): 88.7 µM (inactive)
GI50 (SNB-75): 40.8 µM (inactive)

CC(=O)c1c(O)ccc2c1CC(CC=O)O2 (centres undefined)
GI50 (COLO 205): > 100 µM (inactive)
GI50 (HCT-15): 52.6 µM
GI50 (HOP-62): > 100 µM (inactive)
GI50 (HOP-92): 34.3 µM (inactive)
GI50 (KM12): > 100 µM (inactive)
GI50 (M14): 47.5 µM (inactive)
GI50 (MOLT-4): > 100 µM (inactive)
GI50 (OVCAR-3): 48.5 µM (inactive)
GI50 (OVCAR-8): 27.6 µM (inactive)
GI50 (SF-268): 88.5 µM (inactive)
GI50 (SK-MEL-28): > 100 µM (inactive)
GI50 (SN12C): 58.9 µM (inactive)
GI50 (SNB-75): 42.1 µM (inactive)

c1ccc(CCCC2Sc3cccc4cccc(c34)S2)cc1
GI50 (COLO 205): > 100 µM (inactive)
GI50 (EKVX): > 100 µM (inactive)
GI50 (HCT-15): > 100 µM
GI50 (HOP-62): > 100 µM (inactive)
GI50 (HOP-92): > 100 µM (inactive)
GI50 (KM12): > 100 µM (inactive)
GI50 (M14): > 100 µM (inactive)
GI50 (OVCAR-3): > 100 µM (inactive)
GI50 (OVCAR-8): > 100 µM (inactive)
GI50 (SF-268): > 100 µM (inactive)
GI50 (SK-MEL-28): > 100 µM (inactive)
GI50 (SN12C): > 100 µM (inactive)
GI50 (SNB-75): > 100 µM (inactive)

COC(=O)C1=CC2C(=O)OC1C1C(=O)NC(=O)C21 (centres undefined)
GI50 (COLO 205): > 100 µM (inactive)
GI50 (HOP-62): > 100 µM (inactive)
GI50 (HOP-92): > 100 µM (inactive)
GI50 (KM12): > 100 µM (inactive)
GI50 (M14): > 100 µM (inactive)
GI50 (MOLT-4): > 100 µM (inactive)
GI50 (OVCAR-3): > 100 µM (inactive)
GI50 (OVCAR-8): > 100 µM (inactive)
GI50 (SF-268): > 100 µM (inactive)
GI50 (SK-MEL-28): > 100 µM (inactive)
GI50 (SN12C): > 100 µM (inactive)
GI50 (SNB-75): 74.6 µM (inactive)

CCCCCCCCCCCCNC(=S)OCCCC
GI50 (EKVX): > 100 µM (inactive)
GI50 (HCT-15): > 100 µM
GI50 (HOP-62): > 100 µM (inactive)
GI50 (HOP-92): > 100 µM (inactive)
GI50 (KM12): 28 µM (inactive)
GI50 (M14): > 100 µM (inactive)
GI50 (MOLT-4): 17.9 µM (inactive)
GI50 (OVCAR-8): > 100 µM (inactive)
GI50 (SF-268): > 100 µM (inactive)
GI50 (SK-MEL-28): 76.6 µM (inactive)
GI50 (SN12C): 59.2 µM (inactive)
GI50 (SNB-75): > 100 µM (inactive)

CCOC(=O)C(C(=O)OCC)=C1N[C@H](C(=O)OCC)CS1
GI50 (COLO 205): > 100 µM (inactive)
GI50 (EKVX): > 100 µM (inactive)
GI50 (HCT-15): > 100 µM
GI50 (HOP-62): > 100 µM (inactive)
GI50 (KM12): > 100 µM (inactive)
GI50 (M14): > 100 µM (inactive)
GI50 (MOLT-4): > 100 µM (inactive)
GI50 (OVCAR-3): > 100 µM (inactive)
GI50 (OVCAR-8): > 100 µM (inactive)
GI50 (SF-268): > 100 µM (inactive)
GI50 (SK-MEL-28): > 100 µM (inactive)
GI50 (SN12C): > 100 µM (inactive)

CN1N=C2c3ccccc3CC[C@H]2C1c1ccccc1 (some centres undefined)
GI50 (COLO 205): 35.7 µM (inactive)
GI50 (EKVX): 49.3 µM (inactive)
GI50 (HCT-15): 27 µM
GI50 (HOP-62): 47.9 µM (inactive)
GI50 (HOP-92): 5.25 µM (inactive)
GI50 (KM12): 36.9 µM (inactive)
GI50 (M14): 56.5 µM (inactive)
GI50 (MOLT-4): > 100 µM (inactive)
GI50 (OVCAR-3): 41.8 µM (inactive)
GI50 (OVCAR-8): 41.1 µM (inactive)
GI50 (SF-268): > 100 µM (inactive)
GI50 (SK-MEL-28): > 100 µM (inactive)
GI50 (SN12C): 42.1 µM (inactive)

Brc1ccc(C[N+]23CN4CN(CN(C4)C2)C3)cc1
GI50 (COLO 205): 26.3 µM (inactive)
GI50 (EKVX): > 100 µM (inactive)
GI50 (HCT-15): 24.2 µM
GI50 (HOP-62): > 100 µM (inactive)
GI50 (KM12): > 100 µM (inactive)
GI50 (M14): 16.9 µM (inactive)
GI50 (MOLT-4): 20.5 µM (inactive)
GI50 (OVCAR-3): 73.1 µM (inactive)
GI50 (OVCAR-8): 28.3 µM (inactive)
GI50 (SF-268): 40.2 µM (inactive)
GI50 (SK-MEL-28): 31.3 µM (inactive)
GI50 (SN12C): 24 µM (inactive)
GI50 (SNB-75): > 100 µM (inactive)

CC(C)C(N)=O [ISOBUTYRAMIDE]
GI50 (COLO 205): > 5000 µM (inactive)
GI50 (HCT-15): > 5000 µM
GI50 (HOP-62): > 5000 µM (inactive)
GI50 (HOP-92): > 5000 µM (inactive)
GI50 (KM12): > 5000 µM (inactive)
GI50 (M14): > 5000 µM (inactive)
GI50 (MOLT-4): > 5000 µM (inactive)
GI50 (OVCAR-8): > 5000 µM (inactive)
GI50 (SF-268): > 5000 µM (inactive)
GI50 (SK-MEL-28): > 5000 µM (inactive)
GI50 (SN12C): > 5000 µM (inactive)
GI50 (SNB-75): > 5000 µM (inactive)
